Data reported in patent publication US20220249528A1 (CELGENE CORPORATION, priority 2019, published 2022).
Peptide text beside a SMILES is read from it. * marks the point of attachment. Cbz = O=C(OCc1ccccc1)*; CH2F = FC*

Experiments:
22 AML cell lines = test: Cell viability and 5-azacytidine-venetoclax synergy in AML cell line panel; assay type: cell-based; conditions: venetoclax-resistant lines Kasumi-1, Kasumi-2 and NOMO-1
MV4-11 cells = test: RNASeq analysis, differential expression and KEGG pathways; assay type: cell-based
Text: After treatment, cells were recovered, washed once in PBS, and flash frozen as cell pellets. Cell pellets were sent to Canopy Biosciences for RNA extraction and library preparation and sequencing. RNA was extracted using the Qiagen RNeasy Mini Kit according to manufacturer's instructions. A modified protocol was used to preserve miRNA species. […] MCL1 RNA levels in other cell lines were quantified by RNASeq using standard methods.
Libraries were multiplexed and sequenced using Illumina HiSeq. All gene counts were then imported into the R/Bioconductor package EdgeR and TMM normalization size factors were calculated to adjust for samples for differences in library size. Ribosomal genes and genes not expressed in the smallest group size minus one samples greater than one count-per-million were excluded from further analysis. Differential expression analysis was then performed to analyze for differences between conditions and the results were filtered for only those genes with Benjamini-Hochberg false-discovery rate adjusted p-values less than or equal to 0.05. Global perturbations in known Gene Ontology (GO) terms and KEGG pathways were detected using the R/Bioconductor package GAGE to test for changes in expression of the reported log 2 fold-changes reported by Limma in each term versus the background log 2 fold-changes of all genes found outside the respective term. The R/Bioconductor package heatmap and Pathview was used to display heatmaps or annotated KEGG graphs across groups of samples for each GO term or KEGG pathway (respectively) with a Benjamini-Hochberg false-discovery rate adjusted p-value less than or equal to 0.05. To find differentially expressed genes, the raw counts were variance stabilized with the R/Bioconductor package DESeq2.

MV4-11 xenograft model = test: Disseminated AML xenograft survival study; assay type: in vivo, mice; conditions: 5-azacytidine LEED regimen 1 mg/kg qd×5×3, alone or with venetoclax or midostaurin 100 mg/kg qd×21; vehicle 29.5
Protocol: LEED models oral administration of AZA, while HELD models intravenous or subcutaneous administration of AZA.
The animals were fed ad libitum water (reverse osmosis, 1 ppm Cl), and NIH 31 Modified and Irradiated Lab Diet® consisting of 18.0% crude protein, 5.0% crude fat, and 5.0% crude fiber. […] (68-72° F.) and 40-60% humidity.
On each day of dosing, an appropriate amount of gilteritinib was dissolved in 0.5% methylcellulose in DI water to yield a dosing solution at 0.4 mg/mL. Each week, an appropriate amount of venetoclax was dissolved in 10% ethanol:30% PEG400:60% phosal 50 propylene glycol to yield a dosing solution at 10 mg/mL. […]
Animals were monitored individually for an endpoint of moribundity due to progression of the leukemia. […] The time to endpoint (TTE), in days, was recorded for each mouse that died of its disease or was euthanized due to extensive tumor progression. […] The median TTE value was calculated for each group. The median TTE of treated mice was expressed as a percentage of the median TTE of the control mice (% T/C), and the increase in life span (ILS) was calculated as: ILS=% T/C−100%, where T=median TTE treated, and C=median TTE control. […]
Animals were weighed daily on Days 1-5, then twice per week until the completion of the study. […] Group mean body weight loss also was monitored as per protocol. […] Survival was analyzed by the Kaplan-Meier method, based on TTE values.

[1] = test system: ATF3 and SCD mRNA in MV4-11 cells; test: Real-time PCR validation of ATF3 and SCD expression; assay type: cell-based; conditions: for ATF3 expression: FIG. 14C; for SCD expression: 24 hours, FIG. 14D
Protocol: At this time, cells were recovered and RNA was extracted using Qiagen RNeasy kit according to manufacturer's instructions. Reverse transcription was performed using SuperScript VILO cDNA synthesis kit. Validated Taqman probes and Taqman Fast Advanced Master Mix was used with Viia 7 Real-Time PCR System (Invitrogen/ThermoFisher Scientific, Waltham, Mass.) to quantify transcripts of ATF3, SCD, and 18S mRNA.

MCL-1 in OCI-AML2 cells = test: Western blot of MCL-1 degradation; assay type: cell-based; conditions: OCI-AML2, FIG. 12D
Protocol: (§1) Lysates were quantified using a bicinchoninic acid (BCA) kit (Piece/Thermo Fisher, Waltham, Mass.). 20 to 30 μg protein was resolved on a 4-12% SDS-PAGE gel, transferred to PVDF membranes (80V/90 minute by wet-transfer), and blocked with Oddysey TBS blocking buffer for 1 hour and then probed with appropriate primary antibodies overnight at 4° C. using dilution as recommended by manufacturer. Membranes were washed three times for a total of 30 minutes and then incubated with secondary antibodies at room temperature in the dark for 1 hour. After another three washes, Odyssey infrared imaging system and companion software (LI-COR biosciences, Lincoln, Nebr., USA) were used to scan immunoblot membranes and to quantify band intensity according to the manufacturer's instructions. The ratio of proteins of interest to loading control in treated samples was normalized to the corresponding ratio in untreated cells.

MCL-1 in KG1a cells = test: Western blot of MCL-1 degradation; assay type: cell-based; conditions: FIG. 12A
Protocol: as §1

MCL-1 in THP-1 cells = test: Western blot of MCL-1 degradation; assay type: cell-based; conditions: THP-1, by 24 hours
Protocol: as §1

MCL-1 in MV4-11 cells = test: Western blot of MCL-1 degradation; assay type: cell-based; conditions: 20 μM Z-VAD-FMK 1 hour before 5-azacytidine for 16 hours, FIG. 13B
Protocol: as §1, with “cells. Antibodies used for immunoblotting were purchased from the following sources: BCL-2 (sc-7382), MCL1-(sc-819) from Santa Cruz Biotechnology (Dallas, Tex., USA, Bim (2819), caspase-3 (9664) from Cell Signaling Technology; beta-Actin (A2228) from Sigma-Aldrich; DNMTI (ab188453) from AbCam; IRDye 680 goat anti-rabbit and IRDye 800 goat anti-mouse secondary antibodies (#925-68073 and #925-32212) were purchased from Li-COR Biosciences (Lincoln, Nebr.). […]” for “cells.”

[2] = 1 μM 5-azacytidine vs PBS, 24 h

SMILES: Nc1ncn([C@@H]2O[C@H](CO)[C@@H](O)[C@H]2O)c(=O)n1 [5-azacytidine, 4-amino−1-B-D-ribofuranosyl-1,3,5-triazin-2(1H)-one]
- effect of co-treatment on venetoclax resistance (22 AML cell lines): reversal of venetoclax resistance
- Mean logFC, KEGG pathway Metabolic pathways (MV4-11 cells; [2]): −5.29
- Mean logFC, KEGG pathway Taste transduction (MV4-11 cells; [2]): 2.44
- ATF3 expression increase (MV4-11 cells; RNAseq, 48 hours after 5-azacytidine treatment): two-fold
- median survival (MV4-11 xenograft model): 35
- ATF3 expression ([1]; 0.3 μM, 24 or 48 hours): not sufficient to induce ATF3 expression
- SCD expression ([1]; 3 μM): decreased rapidly within 24 hours
- ATF3 expression ([1]; 0.3, 1 or 3 μM, 24 and 48 hours): increased in a time- and concentration-dependent manner
- SCD expression ([1]; low concentrations): not affected
- MCL-1 degradation (MCL-1 in OCI-AML2 cells): did not lead to any degradation of MCL-1
- start of MCL-1 degradation after treatment (MCL-1 in KG1a cells): 6 h
- extent of MCL-1 degradation (MCL-1 in THP-1 cells): incomplete degradation by 24 hours

SMILES: COC(=O)C[C@H](NC(=O)[C@H](C)NC(=O)[C@@H](NC(=O)OCc1ccccc1)C(C)C)C(=O)CF [Z-VAD-FMK] (Cbz-Val-Ala-Asp(OMe)-CH2F)
- effect on MCL-1 degradation by 5-azacytidine (MCL-1 in MV4-11 cells): partially ablated
